Assay results taken from US10689367B2, “Triazole pyridyl compounds as agonists of the APJ receptor” (AMGEN INC., priority 2016, dated 2020).

Target: human APJ receptor (Homo sapiens (Human), UniProt P35414)
Test: [35S]GTPγS binding assay on membranes from CHO cells stably expressing human APJ receptor
Format: biochemical
Conditions: membranes of CHO cells stably expressing human APJ receptor, read-out: Activity hAPJ SPA EC50 IP
Method in brief: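 [35S]GTPγS binding measured on membranes from CHO cells stably expressing FLAG-tagged human APJ, with GDP, MgCl2 and NaCl levels optimized beforehand. Incubation 90 min at RT, imager read-out; EC50 from non-linear regression, averaged over several independent experiments.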

Sequence of human APJ receptor (P35414 whole entry): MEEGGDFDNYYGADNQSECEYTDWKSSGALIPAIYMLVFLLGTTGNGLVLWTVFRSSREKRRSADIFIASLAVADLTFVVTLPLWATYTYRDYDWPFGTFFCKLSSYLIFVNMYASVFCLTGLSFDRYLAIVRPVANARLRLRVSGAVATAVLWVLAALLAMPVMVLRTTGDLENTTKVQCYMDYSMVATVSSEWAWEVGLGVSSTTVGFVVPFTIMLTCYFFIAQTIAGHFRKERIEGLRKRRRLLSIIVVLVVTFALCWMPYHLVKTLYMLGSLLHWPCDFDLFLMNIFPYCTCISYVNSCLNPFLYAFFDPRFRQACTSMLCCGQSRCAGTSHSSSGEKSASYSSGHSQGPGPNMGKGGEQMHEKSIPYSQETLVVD

COc1cccc(-c2nnc(NS(=O)(=O)[C@@H](C)[C@H](C)c3ncc(Cl)cn3)n2C[C@H]2CCCO2)n1 (racemic) [Example 281.0, (2S,3R)-3-(5-chloropyrimidin-2-yl)-N-(5-(6-methoxypyridin-2-yl)-4-(((R)-tetrahydrofuran-2-yl)methyl)-4H-1,2,4-triazol-3-yl)butane-2-sulfonamide or (2S,3R)-3-(5-chloropyrimidin-2-yl)-N-(5-(6-methoxypyridin-2-yl)-4-(((S)-tetrahydrofuran-2-yl)methyl)-4H-1,2,4-triazol-3-yl)butane-2-sulfonamide] and COc1cccc(-c2nnc(NS(=O)(=O)[C@@H](C)[C@H](OC)c3ncc(Cl)cn3)n2C[C@H]2CCCO2)n1 (single isomer, unassigned) [Example 279.0, (1R,2S)-1-(5-chloropyrimidin-2-yl)-1-methoxy-N-(5-(6-methoxypyridin-2-yl)-4-(((R)-tetrahydrofuran-2-yl)methyl)-4H-1,2,4-triazol-3-yl)propane-2-sulfonamide or (1R,2S)-1-(5-chloropyrimidin-2-yl)-1-methoxy-N-(5-(6-methoxypyridin-2-yl)-4-(((S)-tetrahydrofuran-2-yl)methyl)-4H-1,2,4-triazol-3-yl)propane-2-sulfonamide] are within 1.5-fold of each other in EC50: 110 nM for the first, 75 nM for the second.

First: CCC(CC)n1c(NS(=O)(=O)[C@@H](C)[C@H](OC)c2ncc(Cl)cn2)nnc1-c1cccc(OC)n1 [Example 10.0, (1R,2S)-1-(5-chloro-2-pyrimidinyl)-1-methoxy-N-(5-(6-methoxy-2-pyridinyl)-4-(3-pentanyl)-4H-1,2,4-triazol-3-yl)-2-propanesulfonamide]
Second: CCC(CC)n1c(NS(=O)(=O)[C@@H](C)[C@H](OC)c2ncc(Cl)cn2)nnc1-c1ccccn1 [Example 47.0]
The EC50 of the first is 17-fold lower: 0.32 nM for the first, 5.3 nM for the second.

Going from COc1cccc(-c2nnc(NS(=O)(=O)[C@@H](C)[C@H](OC)c3ncc(Cl)cn3)n2C[C@@H]2CCC[C@H](C)O2)n1 (single isomer, unassigned) [Example 306.0] to COc1cccc(-c2nnc(NS(=O)(=O)[C@@H](C)[C@H](OC)c3ncc(Cl)cn3)n2C[C@@H]2COCCO2)n1 (racemic) [Example 304.0, (1R,2S)-N-(4-(((R)-1,4-dioxan-2-yl)methyl)-5-(6-methoxypyridin-2-yl)-4H-1,2,4-triazol-3-yl)-1-(5-chloropyrimidin-2-yl)-1-methoxypropane-2-sulfonamide or (1R,2S)-N-(4-(((S)-1,4-dioxan-2-yl)methyl)-5-(6-methoxypyridin-2-yl)-4H-1,2,4-triazol-3-yl)-1-(5-chloropyrimidin-2-yl)-1-methoxypropane-2-sulfonamide], the EC50 falls from 35 nM to 20 nM (1.8-fold). The second is the more potent here.

COc1cccc(-c2nnc(NS(=O)(=O)[C@@H](C)[C@H](OC)c3ncc(Cl)cn3)n2C[C@@H]2CCC[C@H](C)O2)n1 (single isomer, unassigned) [Example 308.0] and COc1cccc(-c2nnc(NS(=O)(=O)[C@@H](C)[C@H](OC)c3ncc(Cl)cn3)n2[C@H](C)[C@@H]2CCCCO2)n1 (single isomer, unassigned) [Example 318.0] are within 1.5-fold of each other in EC50: 1.9 nM for the first, 2.4 nM for the second.

COc1cccc(-c2nnc(NS(=O)(=O)[C@@H](C)[C@H](C)c3ncc(Cl)cn3)n2[C@H](C)c2csnn2)n1 (single isomer, unassigned) [Example 295.0, (2S,3R)-N-(4-((R)-1-(1,2,3-thiadiazol-4-yl)ethyl)-5-(6-methoxypyridin-2-yl)-4H-1,2,4-triazol-3-yl)-3-(5-chloropyrimidin-2-yl)butane-2-sulfonamide or (2S,3R)-N-(4-((S)-1-(1,2,3-thiadiazol-4-yl)ethyl)-5-(6-methoxypyridin-2-yl)-4H-1,2,4-triazol-3-yl)-3-(5-chloropyrimidin-2-yl)butane-2-sulfonamide] and COc1cccc(-c2nnc(NS(=O)(=O)[C@@H](C)[C@H](C)c3ncc(Cl)cn3)n2[C@@H](C)c2nc(C)no2)n1 (single isomer, unassigned) [Example 247.0, (2S,3R)-3-(5-chloro-2-pyrimidinyl)-N-(5-(6-methoxy-2-pyridinyl)-4-((1R)-1-(3-methyl-1,2,4-oxadiazol-5-yl)ethyl)-4H-1,2,4-triazol-3-yl)-2-butanesulfonamide or (2S,3R)-3-(5-chloro-2-pyrimidinyl)-N-(5-(6-methoxy-2-pyridinyl)-4-((1S)-1-(3-methyl-1,2,4-oxadiazol-5-yl)ethyl)-4H-1,2,4-triazol-3-yl)-2-butanesulfonamide] are within 1.5-fold of each other in EC50: 6.4 nM for the first, 5.3 nM for the second.

First: COc1cccc(-c2nnc(NS(=O)(=O)[C@@H](C)[C@H](OC)c3ncc(Cl)cn3)n2C2(C3CC3)CC2)n1 [Example 107.0]
Second: [2H]C1([2H])C(n2c(NS(=O)(=O)[C@@H](C)[C@H](OC)c3ncc(Cl)cn3)nnc2-c2cccc(OC)n2)C1([2H])[2H] [Example 148.0, (1R,2S)-1-(5-Chloropyrimidin-2-yl)-N-(4-(cyclopropyl-2,2,3,3-d4)-5-(6-methoxypyridin-2-yl)-4H-1,2,4-triazol-3-yl)-1-methoxypropane-2-sulfonamide]
The EC50 of the first is 16-fold lower: 0.42 nM for the first, 6.8 nM for the second. The first is the more potent here.

First: COc1cccc(-c2nnc(NS(=O)(=O)[C@@H](C)[C@H](OC)c3ncc(Cl)cn3)n2[C@@H](C)c2ncn(C)n2)n1 (single isomer, unassigned) [Example 235.0, (1R,2S)-1-(5-chloro-2-pyrimidinyl)-1-methoxy-N-(5-(6-methoxy-2-pyridinyl)-4-((1S)-1-(1-methyl-1H-1,2,4-triazol-3-yl)ethyl)-4H-1,2,4-triazol-3-yl)-2-propanesulfonamide or (1R,2S)-1-(5-chloro-2-pyrimidinyl)-1-methoxy-N-(5-(6-methoxy-2-pyridinyl)-4-((1R)-1-(1-methyl-1H-1,2,4-triazol-3-yl)ethyl)-4H-1,2,4-triazol-3-yl)-2-propanesulfonamide]
Second: COc1cccc(-c2nnc(NS(=O)(=O)[C@@H](C)[C@H](OC)c3ncc(Cl)cn3)n2[C@@H](C)c2ccno2)n1 (single isomer, unassigned) [Example 213.0, (1R,2S)-1-(5-chloro-2-pyrimidinyl)-1-methoxy-N-(5-(6-methoxy-2-pyridinyl)-4-((1R)-1-(1,2-oxazol-5-yl)ethyl)-4H-1,2,4-triazol-3-yl)-2-propanesulfonamide or (1R,2S)-1-(5-chloro-2-pyrimidinyl)-1-methoxy-N-(5-(6-methoxy-2-pyridinyl)-4-((1S)-1-(1,2-oxazol-5-yl)ethyl)-4H-1,2,4-triazol-3-yl)-2-propanesulfonamide]
The EC50 of the first is 150-fold higher: 100 nM for the first, 0.66 nM for the second.

Going from COc1cccc(-c2nnc(NS(=O)(=O)[C@@H](C)[C@H](OC)c3cnc(C)cn3)n2Cc2cc(C(F)(F)F)no2)n1 [Example 203.0, (1R,2S)-1-methoxy-N-(5-(6-methoxy-2-pyridinyl)-4-((3-(trifluoromethyl)-1,2-oxazol-5-yl)methyl)-4H-1,2,4-triazol-3-yl)-1-(5-methyl-2-pyrazinyl)-2-propanesulfonamide] to COc1cccc(-c2nnc(NS(=O)(=O)[C@@H](C)[C@H](OC)c3ncc(Cl)cn3)n2Cc2cc(C)no2)n1 [Example 189.0, (1R,2S)-1-(5-chloropyrimidin-2-yl)-1-methoxy-N-(5-(6-methoxypyridin-2-yl)-4-((3-methylisoxazol-5-yl)methyl)-4H-1,2,4-triazol-3-yl)propane-2-sulfonamide], the EC50 falls from 56 nM to 18 nM (3.1-fold).

First: CC(C)O[C@@H](c1ncc(Cl)cn1)[C@H](C)S(=O)(=O)Nc1nnc(-c2ccccn2)n1C1CC1 [Example 127.0]
Second: CO[C@H](c1ncc(Cl)cn1)[C@H](C)S(=O)(=O)Nc1nnc(-c2ccncc2)n1C(C)C [Example 135.0, (1R,2S)-1-(5-chloro-2-pyrimidinyl)-1-methoxy-N-(4-(2-propanyl)-5-(4-pyridinyl)-4H-1,2,4-triazol-3-yl)-2-propanesulfonamide]
The EC50 of the first is 40-fold lower: 48 nM for the first, 1900 nM for the second. The first is the more potent here.

COc1cccc(-c2nnc(NS(=O)(=O)[C@@H](C)[C@H](C)c3ncc(Cl)cn3)n2Cc2ccon2)n1 [Example 260.0, (2S,3R)-3-(5-chloropyrimidin-2-yl)-N-(4-(isoxazol-3-ylmethyl)-5-(6-methoxypyridin-2-yl)-4H-1,2,4-triazol-3-yl)butane-2-sulfonamide] and CC[C@@H](c1c(C)noc1C)n1c(NS(=O)(=O)[C@@H](C)[C@H](C)c2ncc(Cl)cn2)nnc1-c1cccc(OC)n1 (single isomer, unassigned) [Example 225.0, (2S,3R)-3-(5-chloro-2-pyrimidinyl)-N-(4-((1R)-1-(3,5-dimethyl-1,2-oxazol-4-yl)propyl)-5-(6-methoxy-2-pyridinyl)-4H-1,2,4-triazol-3-yl)-2-butanesulfonamide or (2S,3R)-3-(5-chloro-2-pyrimidinyl)-N-(4-((1S)-1-(3,5-dimethyl-1,2-oxazol-4-yl)propyl)-5-(6-methoxy-2-pyridinyl)-4H-1,2,4-triazol-3-yl)-2-butanesulfonamide] are the same in EC50: 5.1 nM for the first, 5.1 nM for the second.

Compared with CC[C@@H](c1c(C)noc1C)n1c(NS(=O)(=O)[C@@H](C)[C@H](OC)c2ncc(Cl)cn2)nnc1-c1cccc(OC)n1 (single isomer, unassigned) [Example 218.0, (1R,2S)-1-(5-chloro-2-pyrimidinyl)-N-(4-((1S)-1-(3,5-dimethyl-1,2-oxazol-4-yl)propyl)-5-(6-methoxy-2-pyridinyl)-4H-1,2,4-triazol-3-yl)-1-methoxy-2-propanesulfonamide or (1R,2S)-1-(5-chloro-2-pyrimidinyl)-N-(4-((1S)-1-(3,5-dimethyl-1,2-oxazol-4-yl)propyl)-5-(6-methoxy-2-pyridinyl)-4H-1,2,4-triazol-3-yl)-1-methoxy-2-propanesulfonamide], COCC(COC)n1c(NS(=O)(=O)[C@@H](C)[C@H](C)c2ncc(C)cn2)nnc1-c1cccc(OC)n1 [Example 98.0] is 1.7-fold higher in EC50: 3.7 nM for the first, 6.2 nM for the second.
